Assay results published in US7875621B2, “Substituted 2-alkyl quinazolinone derivatives as PARP inhibitors” (Janssen Pharmaceutica NV, priority 2004, dated 2011).

What was measured:
[1] = biological target: T1, PARP-1 enzyme (Homo sapiens, UniProt P09874); test: In vitro scintillation proximity assay (SPA) for PARP-1 inhibitory activity; format: biochemical
Description: In Vitro Scintillation Proximity Assay (SPA) for PARP-1 Inhibitory Activity
Compounds of the present invention were tested in an in vitro assay based on SPA technology (proprietary to Amersham Pharmacia Biotech).
In principle, the assay relies upon the well established SPA technology for the detection of poly(ADP-ribosyl)ation of biotinylated target proteins, i.e histones. This ribosylation is induced using nicked DNA activated PARP-1 enzyme and [^3H]-nicotinamide adenine dinucleotide ([^3H]-NAD^+) as ADP-ribosyl donor.
As inducer of PARP-1 enzyme activity, nicked DNA was prepared. For this, 25 mg of DNA (supplier: Sigma) was dissolved in 25 ml DNAse buffer (10 mM Tris-HCl, pH 7.4; 0.5 mg/ml Bovine Serum Albumine (BSA); 5 mM MgCl2.6H2O and 1 mM KCl) to which 50 μl DNAse solution (1 mg/ml in 0.15 M NaCl) was added. After an incubation of 90 min. at 37° C., the reaction was terminated by adding 1.45 g NaCl, followed by a further incubation at 58° C. for 15 min. The reaction mixture was cooled on ice and dialysed at 4° C. for respectively 1.5 and 2 hours against 1.5 l of 0.2 M KCl, and twice against 1.5 l of 0.01 M KCl for 1.5 and 2 h respectively. The mixture was aliquoted and stored at −20° C. Histones (1 mg/ml, type II-A, supplier: Sigma) were biotinylated using the biotinylation kit of Amersham and stored aliquoted at −20° C. A stock solution of 100 mg/ml SPA poly(vinyl toluene) (PVT) beads (supplier: Amersham) was made in PBS. A stock solution of [^3H]-NAD^+ was made by adding 120 μl of [^3H]-NAD^+ (0.1 mCi/ml, supplier: NEN) to 6 ml incubation buffer (50 mM Tris/HCl, pH 8; 0.2 mM DTT; 4 mM MgCl2). A solution of 4 mM NAD^+ (supplier: Roche) was made in incubation buffer (from a 100 mM stock solution in water stored at −20° C.). The PARP-1 enzyme was produced using art known techniques, i.e. cloning and expression of the protein starting from human liver cDNA. Information concerning the used protein sequence of the PARP-1 enzyme including literature references can be found in the Swiss-Prot database under primary accession number P09874. Biotinylated histones and PVT-SPA beads were mixed and pre-incubated for 30 min. at room temperature. PARP-1 enzyme (concentration was lot dependent) was mixed with the nicked DNA and the mixture was pre-incubated for 30 min. at 4° C. Equal parts of this histones/PVT-SPA beads solution and PARP-1 enzyme/DNA solution were mixed and 75 μl of this mixture together with 1 μl of compound in DMSO and 25 μl of [^3H]-NAD^+ was added per well into a 96-well microtiterplate. The final concentrations in the incubation mixture were 2 μg/ml for the biotinylated histones, 2 mg/ml for the PVT-SPA beads, 2 μg/ml for the nicked DNA and between 5-10 μg/ml for the PARP-1 enzyme. After incubation of the mixture for 15 min. at room temperature, the reaction was terminated by adding 100 μl of 4 mM NAD in incubation buffer (final concentration 2 mM) and plates were mixed.
The beads were allowed to sediment for at least 15 min. and plates transferred to a TopCountNXT™ (Packard) for scintillation counting, values were expressed as counts per minute (cpm). For each experiment, controls (containing PARP-1 enzyme and DMSO without compound), a blank incubation (containing DMSO but no PARP-1 enzyme or compound) and samples (containing PARP-1 enzyme and compound dissolved in DMSO) were run in parallel. All compounds tested were dissolved and eventually further diluted in DMSO. […] In each test, the blank value was subtracted from both the control and the sample values. The control sample represented maximal PARP-1 enzyme activity. For each sample, the amount of cpm was expressed as a percentage of the mean cpm value of the controls. When appropriate, IC50-values (concentration of the drug, needed to reduce the PARP-1 enzyme activity to 50% of the control) were computed using linear interpolation between the experimental points just above and below the 50% level. […]

[2] = biological target: T1, PARP-1 enzyme; test: In vitro filtration assay for PARP-1 inhibitory activity; format: biochemical
Description: In Vitro Filtration Assay for PARP-1 Inhibitory Activity
Compounds of the present invention were tested in an in vitro filtration assay assessing PARP-1 activity (triggered in the presence of nicked DNA) by means of its histone poly(ADP-ribosyl)ation activity using [^32P]-NAD as ADP-ribosyl donor. The radioactive ribosylated histones were precipitated by trichloroacetic acid (TCA) in 96-well filterplates and the incorporated [^32P] measured using a scintillation counter
A mixture of histones (stock solution: 5 mg/ml in H2O), NAD^+ (stock solution: 100 mM in H2O), and [^32P]-NAD^+ in incubation buffer (50 mM Tris/HCl, pH 8; 0.2 mM DTT; 4 mM MgCl2) was made. A mixture of the PARP-1 enzyme (5-10 μg/ml) and nicked DNA was also made. The nicked DNA was prepared as described in the in vitro SPA for PARP-1 inhibitory activity. […] of the PARP-1 enzyme/DNA mixture together with 1 μl of compound in DMSO and 25 μl of histones-NAD^+/[^32P]-NAD^+ mixture was added per well of a 96-well filterplate (0.45 μm, supplier Millipore). The final concentrations in the incubation mixture were 2 μg/ml for the histones, 0.1 mM for the NAD^+, […] (0.5 μC) for the [^32P]-NAD^+ and 2 μg/ml for the nicked DNA. Plates were incubated for 15 min. at room temperature and the reaction was terminated by the addition of 10 μl ice cold 100% TCA followed by the addition of 10 μl ice-cold BSA solution (1% in H2O). The protein fraction was allowed to precipitate for 10 min. at 4° C. and plates were vacuum filtered. The plates were subsequently washed with, for each well, 1 ml of 10% ice cold TCA, 1 ml of 5% ice cold TCA and 1 ml of 5% TCA at room temperature. Finally 100 μl of scintillation solution (Microscint 40, Packard) was added to each well and the plates were transferred to a TopCountNXT™ (supplier: Packard) for scintillation counting and values were expressed as counts per minute (cpm). For each experiment, controls (containing PARP-1 enzyme and DMSO without compound), a blank incubation (containing DMSO but no PARP-1 enzyme or compound) and samples (containing PARP-1 enzyme and compound dissolved in DMSO) were run in parallel. All compounds tested were dissolved and eventually further diluted in DMSO. In first instance, compounds were tested at a concentration of 10^−5M. […] In each test, the blank value was subtracted from both the control and the sample values. The control sample represented maximal PARP-1 enzyme activity. For each sample, the amount of cpm was expressed as a percentage of the mean cpm value of the controls. When appropriate, IC50-values (concentration of the drug, needed to reduce the PARP-1 enzyme activity to 50% of the control) were computed using linear interpolation between the experimental points just above and below the 50% level. Herein the effects of test compounds are expressed as pIC50 (the negative log value of the IC50-value). As a reference compound, 4-amino-1,8-naphthalimide was included to validate the filtration assay.

[3] = [3H]-NAD+, nicked DNA, biotinylated histones, read-out: in vitro SPA assay PARP-1 pIC50 (converted)
[4] = [32P]-NAD, nicked DNA, histones, read-out: in vitro filter assay PARP-1 pIC50 (converted)

T1 sequence (P09874 whole entry): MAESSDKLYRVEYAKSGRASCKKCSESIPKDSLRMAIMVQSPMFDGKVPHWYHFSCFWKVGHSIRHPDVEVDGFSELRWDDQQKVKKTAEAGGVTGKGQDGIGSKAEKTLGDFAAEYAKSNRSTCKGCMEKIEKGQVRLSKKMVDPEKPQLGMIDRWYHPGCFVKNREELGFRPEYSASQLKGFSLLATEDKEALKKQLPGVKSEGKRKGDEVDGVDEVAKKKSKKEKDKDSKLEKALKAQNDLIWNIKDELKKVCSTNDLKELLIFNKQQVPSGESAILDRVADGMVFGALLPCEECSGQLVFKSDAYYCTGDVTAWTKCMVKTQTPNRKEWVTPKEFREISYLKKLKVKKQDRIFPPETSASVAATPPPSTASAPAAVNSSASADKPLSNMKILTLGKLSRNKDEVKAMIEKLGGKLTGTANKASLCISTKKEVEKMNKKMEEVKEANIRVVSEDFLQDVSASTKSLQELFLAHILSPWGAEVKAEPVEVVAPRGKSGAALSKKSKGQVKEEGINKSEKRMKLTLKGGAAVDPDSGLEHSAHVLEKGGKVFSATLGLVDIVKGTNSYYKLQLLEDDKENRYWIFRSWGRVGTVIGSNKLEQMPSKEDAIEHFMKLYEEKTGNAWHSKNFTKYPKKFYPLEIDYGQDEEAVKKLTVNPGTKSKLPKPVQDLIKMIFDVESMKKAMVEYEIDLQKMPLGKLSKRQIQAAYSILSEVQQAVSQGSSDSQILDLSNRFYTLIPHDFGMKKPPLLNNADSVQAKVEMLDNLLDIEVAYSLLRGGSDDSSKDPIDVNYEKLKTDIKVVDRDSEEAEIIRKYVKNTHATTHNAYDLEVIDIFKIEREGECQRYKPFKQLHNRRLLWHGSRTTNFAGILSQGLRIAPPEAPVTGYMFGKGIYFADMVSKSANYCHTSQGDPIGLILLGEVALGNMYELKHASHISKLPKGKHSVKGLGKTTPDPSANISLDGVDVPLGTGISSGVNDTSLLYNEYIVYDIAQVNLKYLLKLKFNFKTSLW

Structure (SMILES) | IC50 [1, 3] | IC50 [2, 4] | IC50 [1] | IC50 [2]
O=C1NCN(c2ccccc2)C12CCN(CCCc1nc3ccccc3c(=O)[nH]1)CC2 [Compound 2] | 385 nM | 4980 nM |  | 
O=C1NC(CCN2CCC(n3c(=O)[nH]c4ccccc43)CC2)Nc2ccccc21 (stereo not drawn) [Compound 13] |  |  | 318 nM | 4660 nM
NC(=O)C1(c2ccccc2)CCN(CCCC2NC(=O)c3ccccc3N2)CC1 (stereo not drawn) [Compound 5] | 22.9 nM | 300 nM |  | 
O=C(CC1CCN(CCc2nc3ccccc3c(=O)[nH]2)CC1)c1ccc(F)cc1 [Compound 3] | 560 nM | 4260 nM |  | 
NC(=O)C1(c2ccccc2)CCN(CCCc2nc3ccccc3c(=O)[nH]2)CC1 [Compound 4] | 20 nM | 76.7 nM |  | 
O=C1NC(CCCN2CCC(n3c(=O)[nH]c4ccccc43)CC2)Nc2ccccc21 (stereo not drawn) [Compound 7] | 585 nM | 4160 nM |  | 
O=C1NC(CCN2CCC3(CC2)C(=O)NCN3c2ccccc2)Nc2ccccc21 (stereo not drawn) [Compound 6] | 178 nM | 2140 nM |  | 

Second part, led by results:

IC50 [1, 3] | IC50 [2, 4] | Structure (SMILES) | IC50 [1] | IC50 [2]
188 nM | 1140 nM | NC(=O)C1(N2CCOCC2)CCN(CCCc2nc3ccccc3c(=O)[nH]2)CC1 [Compound 11] |  | 
117 nM | 673 nM | O=C(NC1CCN(CCCc2nc3ccccc3c(=O)[nH]2)CC1)c1ccccc1 [Compound 12] |  | 
58.6 nM | 546 nM | O=C(c1ccc(F)cc1)C1CCN(CCCc2nc3ccccc3c(=O)[nH]2)CC1 [Compound 14] |  | 
236 nM | 1570 nM | O=C(NC1CCN(CCCC2NC(=O)c3ccccc3N2)CC1)c1ccccc1 (stereo not drawn) [Compound 8] |  | 
611 nM | 5710 nM | O=C(c1ccc(F)cc1)C1CCN(CCc2nc3ccccc3c(=O)[nH]2)CC1 [Compound 9] |  | 
